Assay results taken from patent US6825209B2, “Compounds having unique CB1 receptor binding selectivity and methods for their production and use” (Research Triangle Institute, priority 2002, dated 2004).
“And” between values parts separate entries of the source, which are not always exact repeats. Identical values can stand only once. Like-named read-outs stand apart in the source and are kept apart here.

Legend:
human CB1 receptor = target: T1, human CB1 receptor (Homo sapiens, UniProt P21554); test: Radioligand displacement in human CB1 receptor-transfected cells (HEK-293); type: binding
T1 construct: expressed in transfected cells; host or cells: HEK-293
T1 sequence (P21554 whole entry): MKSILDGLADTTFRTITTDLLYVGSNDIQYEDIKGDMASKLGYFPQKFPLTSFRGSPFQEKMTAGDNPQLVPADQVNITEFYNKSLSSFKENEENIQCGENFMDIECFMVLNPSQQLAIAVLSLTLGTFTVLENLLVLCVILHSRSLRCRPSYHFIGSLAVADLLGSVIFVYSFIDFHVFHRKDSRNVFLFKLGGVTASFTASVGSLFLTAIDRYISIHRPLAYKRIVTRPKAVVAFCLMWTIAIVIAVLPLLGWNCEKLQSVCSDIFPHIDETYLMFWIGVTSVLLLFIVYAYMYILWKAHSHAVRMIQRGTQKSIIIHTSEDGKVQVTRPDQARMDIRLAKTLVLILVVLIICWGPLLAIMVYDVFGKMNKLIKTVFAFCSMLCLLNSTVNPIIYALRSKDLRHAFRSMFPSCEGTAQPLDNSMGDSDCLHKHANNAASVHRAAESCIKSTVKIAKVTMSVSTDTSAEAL
How it was run: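 Radioligand displacement was run on HEK-293 cells expressing human CB1, with incubation and separation as for rat brain membranes. IC50 values came from one- or two-site nonlinear regression and were converted to Ki by Cheng-Prusoff.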

human CB2 receptor = target: T2, human CB2 receptor (Homo sapiens, UniProt P34972); test: Displacement of 3H-CP55,940 in human CB2 receptor-transfected cells (CHO-K1); type: binding; details: radioligand 3H-CP55940, Tables 6 and 7
T2 construct: expressed in transfected cells; host or cells: CHO-K1
T2 sequence (P34972 whole entry): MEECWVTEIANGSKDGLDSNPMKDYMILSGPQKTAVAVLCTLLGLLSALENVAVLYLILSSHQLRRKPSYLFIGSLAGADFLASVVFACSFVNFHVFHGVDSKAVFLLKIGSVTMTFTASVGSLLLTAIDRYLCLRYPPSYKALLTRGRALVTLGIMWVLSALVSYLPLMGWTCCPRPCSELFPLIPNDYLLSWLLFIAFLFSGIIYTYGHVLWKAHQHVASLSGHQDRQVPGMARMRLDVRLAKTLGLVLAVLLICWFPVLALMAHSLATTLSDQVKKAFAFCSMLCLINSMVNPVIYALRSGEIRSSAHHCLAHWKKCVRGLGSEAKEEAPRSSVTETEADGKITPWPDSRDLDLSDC
How it was run: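 CB2 receptor expressed in CHO-K1 cells; [3H]-CP55,940 displacement with incubation and separation as for rat brain membranes.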

cannabinoid receptors = target: T3, cannabinoid receptors (Mus musculus, UniProt P47746); test: Mouse vas deferens tissue assay (WIN55212-2 as agonist); details: for % Inverse Effect: in the absence of WIN55212-2; for Dextral Shift: shift of the WIN55212-2 dose response curve
T3 construct: mediated by cannabinoid receptors located on prejunctional neurones; from tissue; host or cells: mouse isolated vas deferens
T3 sequence (P47746 whole entry): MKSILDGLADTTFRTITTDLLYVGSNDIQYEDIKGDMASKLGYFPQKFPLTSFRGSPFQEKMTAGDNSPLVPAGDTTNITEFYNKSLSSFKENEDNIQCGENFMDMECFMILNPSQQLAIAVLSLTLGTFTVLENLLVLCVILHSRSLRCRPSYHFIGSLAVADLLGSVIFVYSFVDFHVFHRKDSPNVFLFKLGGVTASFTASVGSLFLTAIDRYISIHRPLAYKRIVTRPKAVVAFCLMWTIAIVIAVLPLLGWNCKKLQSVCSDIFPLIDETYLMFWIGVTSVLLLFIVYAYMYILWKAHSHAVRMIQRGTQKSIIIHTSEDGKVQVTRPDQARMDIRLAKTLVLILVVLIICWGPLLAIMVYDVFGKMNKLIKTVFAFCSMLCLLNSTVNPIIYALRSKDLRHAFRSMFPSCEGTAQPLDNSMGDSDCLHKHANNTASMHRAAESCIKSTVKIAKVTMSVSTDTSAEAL
Excerpt: Pharmacological characterization in isolated mouse vas deferens.
Introduction. The mouse isolated vas deferens can be used to determine both the potency and efficacy (maximum degree of inhibition produced) of cannabinoid receptor agonists. Because of its high sensitivity, this assay usually requires only microgram quantities of test material.
The inhibitory effect of cannabinoids on electrically evoked contractions is thought to be mediated by cannabinoid receptors located on prejunctional neurones rather than on the smooth muscle.
Experimental design. Isolated mouse vasa deferentia were used to determine the potency and efficacy of test compounds as inhibitors of electrically evoked contractions. […] Ability to antagonize was expressed in terms of the association constant (Kb) for the forward reaction between antagonist and cannabinoid receptors.
Methods. […] Electrical field stimulation was between platinum electrodes located at the upper and lower ends of each bath. The stimuli were generated by a Grass S48 stimulator, then amplified (Med-Lab channel attenuator) and finally divided to yield separate outputs to four organ baths (Med-Lab Stimusplitter). All contractions were recorded isometrically.
Concentration-response curves were constructed cumulatively.

CB1 versus CB2 receptors = test: Relative selectivity of the analogs for CB1 versus CB2 receptors; details: CB1 versus CB2 binding, Tables 1, 6 and 7
Excerpt: Human CB2 receptor affinity. The relative selectivity of the analogs for CB1 versus CB2 receptors varied modestly regardless of the structural modifications examined to date.

[1] = displacement of 3H-CP55940, human CB1 transfected cells, radioligand 3H-CP55940, Table 3
[2] = displacement of 3H-SR141716A, human CB1 transfected cells, radioligand 3H-SR141716A, Table 3
[3] = displacement of 3H-WIN55212-2, human CB1 transfected cells, radioligand 3H-WIN55212-2, Table 3
[4] = human CB1 transfected cells, radioligand 3H-CP55940, Table 3
[5] = human CB1 transfected cells, radioligand 3H-SR141716A, Table 3
[6] = human CB1 transfected cells, radioligand 3H-WIN55212-2, Table 3
[7] = read-out: Ki, displacement of 3H-CP55940, human CB2 transfected cells
[8] = isolated mouse vas deferens, WIN55212-2 as agonist, Schild equation, read-out: Kb

| Compound | Ki (human CB1 receptor; [1]) [nM] | Ki (human CB1 receptor; [2]) [nM] | Ki (human CB1 receptor; [3]) [nM] | Max. Disp. %, 3H-CP55940 (human CB1 receptor; [4]) [%] | Max. Disp. %, 3H-SR141716A (human CB1 receptor; [5]) [%] | Max. Disp. %, 3H-WIN55212-2 (human CB1 receptor; [6]) [%] | Max. Disp. %, 3H-CP55940 (human CB2 receptor; human CB2 transfected cells) [%] | Ki (human CB2 receptor; [7]) [nM] | Kb (cannabinoid receptors; [8]) [nM] | % Inverse Effect (cannabinoid receptors; isolated mouse vas deferens) | Dextral Shift (cannabinoid receptors; isolated mouse vas deferens) | further results |
| --- | --- | --- | --- | --- | --- | --- | --- | --- | --- | --- | --- | --- |
| CCCCNC(=O)c1nn(-c2ccc(Cl)cc2Cl)c(-c2ccc(Cl)cc2)c1C [MF9725-64-17] | 28 | 4.79 | 29.8 | 90.2 | 97.4 | 93.2 | 75.6 | 1600 | 21.2 | 28.2% | no effect | – |
| Cc1c(C(=O)NN2CCOCC2)nn(-c2ccc(Cl)cc2Cl)c1-c1ccc(Cl)cc1 [MF9725-33D] | – | – | – | – | – | – | 54.5 | 2400 | 12.5 | 82.5% | 26.3 | – |
| Cc1c(C(=O)NC(C)C)nn(-c2ccc(Cl)cc2Cl)c1-c1ccc(Cl)cc1 [MF9725-65-11] | 91 | 14.4 | 692 | 85.4 | 100 | 93.6 | 68.3 | 1740 | – | – | – | – |
| Cc1c(C(=O)NC2CCCCC2)nn(-c2ccc(Cl)cc2Cl)c1-c1ccc(Cl)cc1 [MF9725-66-11] | 7.06 | 1.02 | 5.36 | 92.3 | 99.9 | 96.8 | 84.5 | 228 | 1.2 | 55.5% | 26.7 | CB1 selectivity (CB1 versus CB2) (CB1 versus CB2 receptors): 93 fold |
| CCCCCCCNC(=O)c1nn(-c2ccc(Cl)cc2Cl)c(-c2ccc(Cl)cc2)c1C [MF9725-133-25] | – | – | – | – | – | – | 47.8 | – | – | 50.6% and 37.8% | – | Max. Disp. %, 3H-CP55940 (human CB1 receptor): 85.3%; Max. Disp. %, 3H-SR141716A (human CB1 receptor): 67.9%; Max. Disp. %, 3H-WIN55212-2 (human CB1 receptor): 53.4%; Ki (human CB1 receptor; displacement of 3H-CP55940): 29.1 nM; Ki (human CB1 receptor; displacement of 3H-SR141716A): 9.3 nM; Ki (human CB1 receptor; displacement of 3H-WIN55212-2): 393 nM; Ki (human CB2 receptor; Ki, displacement of 3H-CP55940, human CB2 transfected cells): 4030 nM; Kb (cannabinoid receptors): 83.9 nM; Kb (cannabinoid receptors; isolated mouse vas deferens, WIN55212-2 as agonist, Schild equation): no effect; Dextral Shift (cannabinoid receptors; isolated mouse vas deferens, listed as heptyl analog): failed to produce an effect |
| CCCCCCNC(=O)c1nn(-c2ccc(Cl)cc2Cl)c(-c2ccc(Cl)cc2)c1C [MF9725-132-25] | 124 | 23.5 | 85.4 | 85.6 | 75.4 | 52.7 | 66.9 | 6870 | 15.4 | 30.1% | no effect | – |
| Cc1c(C(=O)NCC(C)C)nn(-c2ccc(Cl)cc2Cl)c1-c1ccc(Cl)cc1 [MF9725-68-10] | 93.6 | 14.3 | 127 | 70.1 | 99.5 | 100 | 80.0 | 704 | – | – | – | – |
